The structures appear in SMILES notation. Converted amounts (≈) assume the structure as drawn. Bounds are passed on as bounds.

The results in this text go back to ChEMBL document CHEMBL4196012 (Eur J Med Chem, 2018).

In assay [1] the test system is Staphylococcus aureus. In words: Potency index, ratio of ciprofloxacin MIC to compound MIC for antibacterial activity against vancomycin-insensitive Staphylococcus aureus. It counts as functional.
Assay [2] has as its system Staphylococcus aureus. As to the kind of experiment: Antibacterial activity against Staphylococcus aureus ATCC 29213 after 16 to 20 hrs by NCCLS microdilution method. It counts as functional. In general terms: In broth dilution the organism is exposed to a series of concentrations in liquid medium.
For assay [3], the system named is Staphylococcus aureus. As to the kind of experiment: Antibacterial activity against quinolone-resistant Staphylococcus aureus after 16 to 20 hrs by NCCLS microdilution method. It counts as functional.
Assay [4] relates to Staphylococcus aureus. In words: Antibacterial activity against linezolid-resistant Staphylococcus aureus after 16 to 20 hrs by NCCLS microdilution method. It counts as functional.
The test system of assay [5] is Enterococcus faecalis. In words: Antibacterial activity against Enterococcus faecalis ATCC 29212 after 16 to 20 hrs by NCCLS microdilution method. It counts as functional.
In assay [6] the test system is Enterococcus faecalis. As to the kind of experiment: Antibacterial activity against linezolid-resistant Enterococcus faecalis after 16 to 20 hrs by NCCLS microdilution method. It counts as functional.
The next assay concerns Enterococcus faecium. As to the kind of experiment: Antibacterial activity against vancomycin and quinolone-resistant Enterococcus faecium after 16 to 20 hrs by NCCLS microdilution method. It counts as functional.
Assay [7] relates to Streptococcus pneumoniae. As to the kind of experiment: Antibacterial activity against Streptococcus pneumoniae ATCC 49619 after 16 to 20 hrs by NCCLS microdilution method. The assay is classed as functional.
Assay [8] deals with Streptococcus pneumoniae. In words: Antibacterial activity against quinolone-resistant Streptococcus pneumoniae after 16 to 20 hrs by NCCLS microdilution method. It counts as functional.
The test system of another assay is Haemophilus influenzae. As to the kind of experiment: Antibacterial activity against Haemophilus influenzae 11 after 16 to 20 hrs by NCCLS microdilution method. The assay is classed as functional.
In a further assay the test system is Moraxella catarrhalis. As to the kind of experiment: Antibacterial activity against Moraxella catarrhalis ATCC 8176 after 16 to 20 hrs by NCCLS microdilution method. It counts as functional.
Assay [9] has as its system Escherichia coli. As to the kind of experiment: Antibacterial activity against Escherichia coli ATCC 25922 after 16 to 20 hrs by NCCLS microdilution method. It counts as functional.
Assay [10] has as its system Escherichia coli. In words: Antibacterial activity against Escherichia coli after 24 hrs by agar streak dilution method. The assay is classed as functional.
The test system of assay [11] is Pseudomonas aeruginosa. As to the kind of experiment: Potency index, ratio of ciprofloxacin MIC to compound MIC for antibacterial activity against Pseudomonas aeruginosa. It counts as functional.
Assay [12] deals with Escherichia coli. In words: Potency index, ratio of ciprofloxacin MIC to compound MIC for antibacterial activity against Escherichia coli. It counts as functional.
Assay [13] concerns Pseudomonas aeruginosa. In words: Antibacterial activity against Pseudomonas aeruginosa after 24 hrs by agar streak dilution method. It counts as functional.
The test system of assay [14] is Staphylococcus aureus. In words: Antibacterial activity against Staphylococcus aureus ATCC 6538p after 18 hrs by agar dilution method. The assay is classed as functional. A general note: Agar dilution tests growth on a series of plates holding different concentrations.
For assay [15], the system named is Staphylococcus aureus. In words: Antibacterial activity against methicillin-resistant Staphylococcus aureus isolate 1 after 18 hrs by agar dilution method. It counts as functional. Conditions: isolate 1, 18 h.
Assay [16] has as its system Staphylococcus aureus. As to the kind of experiment: Antibacterial activity against methicillin-resistant Staphylococcus aureus isolate 2 after 18 hrs by agar dilution method. It counts as functional. Conditions: isolate 2, 18 h.
The subject of assay [17] is Staphylococcus epidermidis. In words: Antibacterial activity against Staphylococcus epidermidis ATCC 12228 after 18 hrs by agar dilution method. Conditions: ATCC 12228, 18 h. The assay is classed as functional.
In the next assay the test system is Bacillus spizizenii. In words: Antibacterial activity against Bacillus subtilis ATCC 6633 after 18 hrs by agar dilution method. The assay is classed as functional. Conditions: ATCC 6633, 18 h.
Assay [18] has as its system Escherichia coli. As to the kind of experiment: Antibacterial activity against Escherichia coli ATCC 8739 after 18 hrs by agar dilution method. The assay is classed as functional. Conditions: ATCC 8739, 18 h.
The subject of another assay is Klebsiella pneumoniae. As to the kind of experiment: Antibacterial activity against Klebsiella pneumoniae ATCC 10031 after 18 hrs by agar dilution method. The assay is classed as functional. Conditions: ATCC 10031, 18 h.
Assay [19] has as its system Pseudomonas aeruginosa. In words: Antibacterial activity against Pseudomonas aeruginosa ATCC 9027 after 18 hrs by agar dilution method. Conditions: ATCC 9027, 18 h. The assay is classed as functional.
Another assay concerns Bacillus subtilis. As to the kind of experiment: Antibacterial activity against Bacillus subtilis PTCC 1023 by agar dilution method. It counts as functional.
Assay [20] has as its system Staphylococcus aureus. In words: Antibacterial activity against Staphylococcus aureus ATCC 6538P by agar dilution method. The assay is classed as functional.
Assay [21] concerns Staphylococcus epidermidis. In words: Antibacterial activity against Staphylococcus epidermidis ATCC 12228 by agar dilution method. The assay is classed as functional.
Assay [22] deals with Escherichia coli. In words: In vivo antibacterial activity against Escherichia coli NCTC 10419 infected in po dosed mouse administered at 1 and 4 hrs post infection. The assay is classed as functional, organism-based.
Assay [23] has as its system Escherichia coli. In words: microbe, parasite or virus in culture. Conditions: NCTC 10419.

As for `CCn1cc(C(=O)O)c(=O)c2cnc(N3CCN(Cc4ccc(CN5CCN(c6cc7c(cc6F)c(=O)c(C(=O)O)cn7C6CC6)CC5)cc4)CC3)nc21`, in the assay on Staphylococcus aureus [1], the Ratio is reported as above 4.
Turning to `CC(=O)NC[C@H]1CN(c2ccc(N3CCN(c4cc5c(cc4F)c(=O)c(C(=O)O)cn5C4CC4)CC3)c(F)c2)C(=O)O1`, the MIC in the assay on Staphylococcus aureus [2] was in the range of 0.125 to 4 µg/mL (≈ 0.215 to 6.88 µM); with Staphylococcus aureus [3], 0.25 to 0.5 µg/mL (≈ 0.43 to 0.86 µM); in the assay on Staphylococcus aureus [4], 0.125 to 4 µg/mL (≈ 0.215 to 6.88 µM); in the assay on Enterococcus faecalis [5] it was 0.125 to 4 µg/mL (≈ 0.215 to 6.88 µM); in the assay with Enterococcus faecalis [6], 0.125 to 4 µg/mL (≈ 0.215 to 6.88 µM); against Enterococcus faecium, 0.25 to 0.5 µg/mL (≈ 0.43 to 0.86 µM). Moreover, the MIC against Streptococcus pneumoniae [7] lay in the range of 0.125 to 4 µg/mL (≈ 0.215 to 6.88 µM); in the assay with Streptococcus pneumoniae [8], 0.25 to 0.5 µg/mL (≈ 0.43 to 0.86 µM); in the assay with Haemophilus influenzae it was 0.125 to 4 µg/mL (≈ 0.215 to 6.88 µM); in the assay with Moraxella catarrhalis, 0.125 to 4 µg/mL (≈ 0.215 to 6.88 µM); against Escherichia coli [9] it was 0.125 to 4 µg/mL (≈ 0.215 to 6.88 µM).
On to `CCOc1ccc2nc(C3C(=O)CSC3N3CCN(c4cc5c(cc4F)c(=O)c(C(=O)O)cn5C4CC4)CC3)sc2c1` (configuration not stated), for which the MIC in the assay on Escherichia coli [10] and in the assay with Pseudomonas aeruginosa [13] was 2 µg/mL (≈ 3.29 µM) each time. The Ratio in the assay on Pseudomonas aeruginosa [11] and with Escherichia coli [12] was 3 throughout.
As for `O=C(CN1CCN(c2cc3c(cc2F)c(=O)c(C(=O)O)cn3C2CC2)CC1)c1cc2ccccc2oc1=O`, the MIC (against Staphylococcus aureus [14]; against Staphylococcus aureus [15]; with Staphylococcus aureus [16]; in assay [17]; in the assay on Bacillus spizizenii; against Escherichia coli [18]) was 0.025 to 1.56 µg/mL (≈ 0.0483 to 3.01 µM) each time. Besides, the MIC with Klebsiella pneumoniae and in the assay with Pseudomonas aeruginosa [19] was 0.025 to 1.56 µg/mL (≈ 0.0483 to 3.01 µM) throughout.
In the case of `O=C(O)c1cn(C2CC2)c2cc(N3CCNCC3)c(F)cc2c1=O` [CIPROFLOXACIN], the MIC in the assay with Bacillus subtilis was 0.015 to 0.5 µg/mL (≈ 0.0453 to 1.51 µM); in the assay on Staphylococcus aureus [20], 0.015 to 0.5 µg/mL (≈ 0.0453 to 1.51 µM); in assay [21], 0.015 to 0.5 µg/mL (≈ 0.0453 to 1.51 µM); with Staphylococcus aureus [3], at least 32 µg/mL; in the assay with Enterococcus faecium, at least 32 µg/mL; in the assay with Streptococcus pneumoniae [8], at least 32 µg/mL. Moreover, the MIC against Escherichia coli [23] was found to be 1.1 nM (≈ 0.364 ng/mL). The same compound gave an EC50 in the assay on Escherichia coli [22] of 1.25 mg/kg.
